Columns and labels:
[1] = biological target: T1, P2X7 receptor (Homo sapiens, UniProt Q99572); assay: P2X7 receptor antagonist test: bbATP-induced ethidium bromide fluorescence in THP-1 cells; format: cell-based; conditions: 10^-5M bbATP agonist, 10^-4M ethidium bromide, 37° C. one hour, negative log of concentration reducing bbATP agonist activity by 50%
T1 construct: 200 μl of a suspension of THP-1 cells; endogenous in cells; host or cells: THP-1 cells
T1 sequence (Q99572 1-595): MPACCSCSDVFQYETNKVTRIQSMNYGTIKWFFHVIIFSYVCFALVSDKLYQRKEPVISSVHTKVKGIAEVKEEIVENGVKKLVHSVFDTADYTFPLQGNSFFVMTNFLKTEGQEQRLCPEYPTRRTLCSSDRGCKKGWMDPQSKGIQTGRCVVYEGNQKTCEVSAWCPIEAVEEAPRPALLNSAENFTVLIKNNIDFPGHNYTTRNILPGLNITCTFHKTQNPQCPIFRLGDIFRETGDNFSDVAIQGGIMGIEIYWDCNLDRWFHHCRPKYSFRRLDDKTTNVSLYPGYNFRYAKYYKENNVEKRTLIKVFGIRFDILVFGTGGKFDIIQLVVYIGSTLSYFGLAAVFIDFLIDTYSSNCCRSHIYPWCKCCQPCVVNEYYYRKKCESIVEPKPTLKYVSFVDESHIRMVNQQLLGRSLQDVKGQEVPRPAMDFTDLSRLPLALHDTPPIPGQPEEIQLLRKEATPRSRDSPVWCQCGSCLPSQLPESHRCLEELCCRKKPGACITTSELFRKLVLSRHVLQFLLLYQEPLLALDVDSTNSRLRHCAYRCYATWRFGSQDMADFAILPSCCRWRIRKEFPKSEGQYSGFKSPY
Experimental: Consequently, when the receptor is activated using bbATP in the presence of ethidium bromide (a fluorescent DNA probe), an increase in the fluorescence of intracellular DNA-bound ethidium bromide is observed. The increase in fluorescence can be used as a measure of P2X7 receptor activation and therefore to quantify the effect of a compound on the P2X7 receptor.
In this manner, each of the title compounds of the Examples was tested for antagonist activity at the P2X7 receptor. […] The plate was covered with a plastics sheet and incubated at 37° C. for one hour. The plate was then read in a Perkin-Elmer fluorescent plate reader, excitation 520 nm, emission 595 nm, slit widths: Ex 15 nm, Em 20 nm. For the purposes of comparison, bbATP (a P2X7 receptor agonist) and pyridoxal 5-phosphate (a P2X7 receptor antagonist) were used separately in the test as controls. From the readings obtained, a pIC50 figure was calculated for each test compound, this figure being the negative logarithm of the concentration of test compound necessary to reduce the bbATP agonist activity by 50%.

Row | IC50 [1] [nM] | melting point [°C] | Structure (SMILES)
1 | 316 |  | O=C(O)c1ccc(-c2ccc(Cl)c(C(=O)NCC34CC5CC(CC(C5)C3)C4)c2)cc1 [Example 1, 4′-Chloro-3′-[[(tricyclo[3.3.1.1^3,7]dec-1-ylmethyl)amino]carbonyl]-[1,1′-biphenyl]-4-carboxylic acid]
2 |  | 220 to 225 | O=C(O)c1cc(C(F)(F)F)cc(-c2ccc(Cl)c(C(=O)NCC34CC5CC(CC(C5)C3)C4)c2)n1 [Example 72, 6-[4-Chloro-3-[[(tricyclo[3.3.1.1^3,7]dec-1-ylmethyl)amino]carbonyl]phenyl]-4-(trifluoromethyl)-2-pyridinecarboxylic acid]
3 |  | 172 to 177 | CC(=O)Nc1ccc(-c2ccc(Cl)c(C(=O)NCC34CC5CC(CC(C5)C3)C4)c2)c(C)n1 [Example 73, 5-[6-(Acetylamino)-2-methyl-3-pyridinyl]-2-chloro-N-(tricyclo[3.3.1.1^3,7]dec-1-ylmethyl)-benzamide]

Source: patent publication US20080153850A1, “Adamantyl Derivates as P2x7 Receptor Antagonists” (AstraZeneca AB, priority 2004, published 2008)
